{"source": "paper PMC5061366", "about": "“Metagenomic Analysis of the Sponge Discodermia Reveals the Production of the Cyanobacterial Natural Product Kasumigamide by ‘Entotheonella’” (PLoS ONE, 2016)", "conditions_in_all_cases": "1 mM substrate, 1 uM protein, 0.5 mM ATP, 10 mM MgCl2, 32 mM hydroxylamine, 1 mM DTT, pH 7.5, room temperature, 10 min", "key": {"[1]": {"target": "T1, MakasA-A1 (Microcystis aeruginosa, UniProt A0A1L7NR41)", "T1 construct": "single adenylation domain A1 of MakasA; N-terminal His6 (pCold II), E. coli BLR(DE3)", "T1 sequence (A0A1L7NR41 1-560 limits assumed)": "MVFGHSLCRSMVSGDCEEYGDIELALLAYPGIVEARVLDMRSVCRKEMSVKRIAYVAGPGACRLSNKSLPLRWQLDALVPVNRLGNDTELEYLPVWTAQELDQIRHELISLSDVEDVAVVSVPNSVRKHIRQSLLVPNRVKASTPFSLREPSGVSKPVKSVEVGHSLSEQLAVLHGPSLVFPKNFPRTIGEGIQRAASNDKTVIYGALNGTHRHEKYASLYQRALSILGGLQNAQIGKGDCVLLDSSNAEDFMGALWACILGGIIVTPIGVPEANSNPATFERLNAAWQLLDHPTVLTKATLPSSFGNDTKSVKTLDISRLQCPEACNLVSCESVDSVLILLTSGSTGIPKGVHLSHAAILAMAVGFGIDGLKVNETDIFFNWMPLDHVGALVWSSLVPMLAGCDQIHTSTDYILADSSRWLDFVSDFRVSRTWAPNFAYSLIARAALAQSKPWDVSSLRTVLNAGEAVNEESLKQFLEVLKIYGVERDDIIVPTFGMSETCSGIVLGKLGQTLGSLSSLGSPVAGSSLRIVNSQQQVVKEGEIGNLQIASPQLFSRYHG", "assay": "malachite green phosphate assay of adenylation (hydroxylamine, pyrophosphatase)", "type": "biochemical"}, "[2]": {"target": "MakasC-A1 (Microcystis aeruginosa, UniProt A0A1L7NR40)"}, "[3]": {"target": "T2, MakasB-A1 (Microcystis aeruginosa, UniProt A0A1L7NR43)", "T2 construct": "C-A1-PCP tridomain of MakasB (MakasB-CA1P); N-terminal His6 (pCold II), E. coli BLR(DE3)", "assay": "malachite green phosphate assay of adenylation (hydroxylamine, pyrophosphatase)", "type": "biochemical"}, "[4]": {"target": "T3, MakasB-A2 (Microcystis aeruginosa, UniProt A0A1L7NR43)", "T3 construct": "single adenylation domain A2 of MakasB; N-terminal His6-MBP fusion (NhisMBP-pET28b(+)), E. coli BLR(DE3)", "assay": "malachite green phosphate assay of adenylation (hydroxylamine, pyrophosphatase)", "type": "biochemical"}, "[5]": {"target": "T4, MakasC-A2 (Microcystis aeruginosa, UniProt A0A1L7NR40)", "T4 construct": "C-A2-PCP tridomain of MakasC (MakasC-CA2P); N-terminal His6 (pCold II), E. coli BLR(DE3)", "assay": "malachite green phosphate assay of adenylation (hydroxylamine, pyrophosphatase)", "type": "biochemical"}}}
{"smiles": "O=C(O)C(=O)Cc1ccccc1", "note": "[phenyl pyruvic acid]", "values": [{"measurement": "relative adenylation activity", "setting": "[1]", "result": "exhibited catalytic activities selective for PP, β-Ala, L-Trp, and L-Arg, respectively"}]}
{"smiles": "N=C(N)NCCC[C@H](N)C(=O)O", "note": "[L-Arg]", "values": [{"measurement": "relative adenylation activity", "setting": "[2]", "result": "exhibited catalytic activities selective for PP, β-Ala, L-Trp, and L-Arg, respectively"}]}
{"smiles": "NCCC(=O)O", "note": "[β-Ala]", "values": [{"measurement": "relative adenylation activity", "setting": "[3]", "result": "exhibited catalytic activities selective for PP, β-Ala, L-Trp, and L-Arg, respectively"}]}
{"smiles": "N[C@@H](Cc1c[nH]c2ccccc12)C(=O)O", "note": "[L-Trp]", "values": [{"measurement": "relative adenylation activity", "setting": "[4]", "result": "exhibited catalytic activities selective for PP, β-Ala, L-Trp, and L-Arg, respectively"}]}
{"smiles": "NC(C(=O)O)C(O)c1ccccc1", "note": "(racemic) [DL-threo-3-phenylserine]", "values": [{"measurement": "relative adenylation activity", "setting": "[5]", "result": "MakasC-A2 showed higher selectivity to DL-threo-3-phenylserine (DL-threo-PS) than L-Phe"}]}
